Results as given in article PMC10745054, “A Synthetic Model of the Mucosa for Oral Penetration Studies” (Membranes, 2023).

Tests used:
[1] = cited from earlier work
[2] = In vitro permeation through porcine skin, Franz diffusion cell; format: in vitro ADME; conditions: after 4 h
Description: Three types of membranes were used in this study, a synthetic membrane and two biological membranes, porcine skin and porcine sublingual oral mucosa. […] The biological membranes were a porcine sublingual mucosa and porcine skin. The porcine tongues with sublingual mucosa were supplied by the Faculty of Pharmacy of the University of Barcelona from the Hospital de Bellvitge campus according to the protocols of the ethics committee and with the supervision of the above institution. The mucous membrane was dermatomed to a thickness of 500–700 µm (Dermatome GA630, Aesculap, Tuttlingen, Germany), and portions of the sublingual oral mucosa were obtained to fit in the Franz diffusion cells. In addition, to determine the specific thickness, each mucosal portion was measured with a digital micrometer (MAHR, Göttingen, Germany). […]
(§1) Next, a pseudoinfinite dose (300 µL) of the drug or biocidal solution was applied to each Franz cell. […] The permeation of three biocides, Fungitrol (FUN), propiconazole (PRO), and permethrin (PER), was also determined. […]
The release of each compound was evaluated by determining the cumulative amount permeated (Qn, μg/cm^2), which corresponds to the cumulative amount of the substance quantified in the receiving liquid per unit of surface area of the applied sample [31]. […]

[3] = In vitro permeation through porcine sublingual mucosa (intact or modified by formulation), Franz diffusion cell; format: in vitro ADME
Description: (§2) Three types of membranes were used in this study, a synthetic membrane and two biological membranes, porcine skin and porcine sublingual oral mucosa. […] The biological membranes were a porcine sublingual mucosa and porcine skin. The porcine tongues with sublingual mucosa were supplied by the Faculty of Pharmacy of the University of Barcelona from the Hospital de Bellvitge campus according to the protocols of the ethics committee and with the supervision of the above institution. The mucous membrane was dermatomed to a thickness of 500–700 µm (Dermatome GA630, Aesculap, Tuttlingen, Germany), and portions of the sublingual oral mucosa were obtained to fit in the Franz diffusion cells. In addition, to determine the specific thickness, each mucosal portion was measured with a digital micrometer (MAHR, Göttingen, Germany). Porcine skin was obtained from the unboiled back of a Landrace large white pig (3 months old, weight around 40 kg) (supplied by the Department of Cardiology of the Clinic Hospital of Barcelona). Animal handling was approved by the Institutional Review Board and Ethics Committee of Institut d’Investigacions Biomèdiques August Pi i Sunyer (IDIBAPS), and the management of the animals conformed to the Guide for the Care and Use of Laboratory Animals. Porcine skin was dermatomed to a thickness of 500 ± 50 µm (Dermatome GA630, Aesculap, Germany) and stored at −20 °C until further use.
The Nuclepore synthetic membrane, sublingual mucosa, and porcine skin dermatomed to a thickness of 500–700 µm were used to evaluate the permeation of drug/biocidal compounds. These studies were performed using a Franz vertical diffusion cell (Lara Spiral, Couternon, France) as described before. The receiving fluid (RF) used was PBS:EtOH (1:1) for drug permeation and EtOH:H2O (75:25) for biocide permeation, assuring sink conditions of the compounds.
Next, a pseudoinfinite dose (300 µL) of the drug or biocidal solution was applied to each Franz cell. Solutions were applied in triplicate to determine the kinetic parameters. […] The permeation of three biocides, Fungitrol (FUN), propiconazole (PRO), and permethrin (PER), was also determined. The biocides were dissolved in ethanol, each at a concentration of 1%.
Samples (0.2 mL) were collected at different times (0 h, 0.5 h, 1 h, 2 h, and 4 h), and the same volume of receptor fluid was immediately added back for replacement.
(§3) The release of each compound was evaluated by determining the cumulative amount permeated (Qn, μg/cm^2), which corresponds to the cumulative amount of the substance quantified in the receiving liquid per unit of surface area of the applied sample [31].
(§4) The experimental Qn and % compound release data were used to construct graphs showing permeation over time. […] The model was determined with the nonlinear regression software STATGRAPHICS plus 5 (Statgraphics Technologies, Inc., The Plains, VA, USA), and the best equation was selected based on the highest correlation coefficient corrected for the number of degrees of freedom (R^2 DoFs).
Parameters were obtained from the graph. Fluxes (J, μg/cm^2/h) from the tested compounds were calculated from the slope of the linear portion of the cumulative amounts permeated through the membrane per unit surface area versus time plot. The permeability coefficients (Kp, cm/h) were obtained by dividing the J by the initial drug/biocide concentration. And Cmax represented the maxima concentration permeated for each active substance.
As in the previous TMWL assay, dermatomed porcine sublingual mucosa and split skin at a thickness of 500–700 µm as well as the synthetic Nuclepore membrane were used in this study.

[4] = In vitro permeation through Nuclepore synthetic membrane (intact or modified by formulation), Franz diffusion cell; format: in vitro ADME; conditions: for percent permeation: at 4 h
Description: as §2
The Nuclepore synthetic membrane, sublingual mucosa, and porcine skin dermatomed to a thickness of 500–700 µm were used to evaluate the permeation of drug/biocidal compounds. These studies were performed using a Franz vertical diffusion cell (Lara Spiral, Couternon, France) as described before. […]
as §1, §3, §4
Parameters were obtained from the graph. Fluxes (J, μg/cm^2/h) from the tested compounds were calculated from the slope of the linear portion of the cumulative amounts permeated through the membrane per unit surface area versus time plot. […]

CC1(C)C(C=C(Cl)Cl)C1C(=O)OCc1cccc(Oc2ccccc2)c1 (centres unmarked) [Permethrin, permethrin]
Log Ko/w (pH 7.4) [1]: 6.5 [44]

Fungitrol
Log Ko/w (pH 7.4) [1]: 2.4 [42]

Cn1c(=O)c2c(ncn2C)n(C)c1=O [Caffeine]
percent permeation [2]: approximately 10% | Permeability Coef. Kp ([3]; MUCOSA F3: mucosa modified with formulation 3): 8.3 ± 2.5 10^−3 cm/h | Permeability Coef. Kp ([3]; MUCOSA F6: mucosa modified with formulation 6): 49.3 ± 0.1 10^−3 cm/h | Permeability Coef. Kp ([3]; MUCOSA F16: mucosa modified with formulation 16): 6.4 ± 0.9 10^−3 cm/h | percent permeation ([3]; mucosa modified with formulation 6 (MUC F6), at 4 h): 60% | percent permeation ([3]; mucosa modified with hydrophobic formulation 3 (MUC F3), at 4 h): approximately 10% | percent permeation ([3]; mucosa modified with liposomal formulation 16 (printed MUC F6), at 4 h): approximately 10% | percent permeation (release) ([3]; sublingual mucosa (MUC), at 4 h): 40% | maximum permeation ([4]; Nuclepore membrane (NP), between 0.5 and 4 h): 50% | percent permeation ([4]; Nuclepore modified with formulation 6 (NP F6)): 65% | percent permeation ([4]; Nuclepore modified with hydrophobic formulation 3 (NP F3)): 40% | percent permeation ([4]; Nuclepore modified with liposomal formulation 16 (printed NP F6)): 40%

CCCC1COC(Cn2cncn2)(c2ccc(Cl)cc2Cl)O1 (centres unmarked) [Propiconazole, propiconazole]
Log Ko/w (pH 7.4) [1]: 3.5 [43]

O=C(c1ccccc1)c1ccc2n1CCC2C(=O)O (centres unmarked) [Ketorolac tromethamine, ketorolac tromethamine]
Log Ko/w (pH 7.4) [1]: 2.3 [39]

C[C@@H]1C[C@H]2[C@@H]3CCC4=CC(=O)C=C[C@]4(C)[C@@]3(F)[C@@H](O)C[C@]2(C)[C@@]1(O)C(=O)CO [Dexametasone, dexamethasone]
Log Ko/w (pH 7.4) [1]: 1.8 [40]
